Measurements from the supplement of paper PMC11061612.

How the values were obtained:
Assay in all cases: Bliss excess, mean over the matrix (fraction); higher = more synergy
[1] = system: NCI-H2347 (Lung Adenocarcinoma)
Procedure, shortened: (§1)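 Bliss excess equals the observed combination effect minus the expected value EA + EB − EA·EB, where EA and EB are the effects of each agent alone. Combination Emax is the second-highest inhibition within the matrix. Inhibition was scaled from CellTiter-Glo 2.0 luminescence, with 0 set by vehicle wells and 1 by blank wells, after 72 hours of two-drug dosing of cells plated in 1536-well plates.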

[2] = system: OCUM-1 (Gastric Carcinoma)
Procedure, shortened: as §1

[3] = system: KLE (Endometrial Carcinoma)
Procedure, shortened: as §1

[4] = system: HuP-T3 (Pancreatic Carcinoma)
Procedure, shortened: as §1

[5] = system: KINGS-1 (Low Grade Glioma)
Procedure, shortened: as §1

[6] = system: HSC-2 (Oral Cavity Carcinoma)
Procedure, shortened: as §1

[7] = system: SNU-C1 (Colorectal Carcinoma)
Procedure, shortened: as §1

EW-18 (Ewing's Sarcoma) = system: EW-18 (Ewing's Sarcoma)
Procedure, shortened: as §1

[8] = system: JHH-7 (Hepatocellular Carcinoma)
Procedure, shortened: as §1

[9] = system: NCI-N87 (Gastric Carcinoma)
Procedure, shortened: as §1

[10] = system: TGBC11TKB (Gastric Carcinoma)
Procedure, shortened: as §1

[11] = system: KYSE-150 (Esophageal Squamous Cell Carcinoma)
Procedure, shortened: as §1

RPMI-7951 (Melanoma) = system: RPMI-7951 (Melanoma)
Procedure, shortened: as §1

[12] = system: BV-173 (Chronic Myelogenous Leukemia)
Procedure, shortened: as §1

U-87-MG (Glioblastoma) = system: U-87-MG (Glioblastoma)
Procedure, shortened: as §1

NB7 (Neuroblastoma) = system: NB7 (Neuroblastoma)
Procedure, shortened: as §1

[13] = system: MFE-319 (Endometrial Carcinoma)
Procedure, shortened: as §1

[14] = system: NCI-H513 (Other Solid Carcinomas)
Procedure, shortened: as §1

[15] = system: NCI-H322M (Lung Adenocarcinoma)
Procedure, shortened: as §1

GI-1 (Glioblastoma) = system: GI-1 (Glioblastoma)
Procedure, shortened: as §1

SMILES	Bliss excess [1]	Bliss excess [2]	Bliss excess [3]	Bliss excess [4]	Bliss excess [5]	Bliss excess [6]	Bliss excess [7]	Bliss excess (EW-18 (Ewing's Sarcoma))	Bliss excess [8]	Bliss excess [9]	Bliss excess [10]	Bliss excess [11]	Bliss excess (RPMI-7951 (Melanoma))	Bliss excess [12]	Bliss excess (U-87-MG (Glioblastoma))	Bliss excess (NB7 (Neuroblastoma))	Bliss excess [13]	Bliss excess [14]	Bliss excess [15]	Bliss excess (GI-1 (Glioblastoma))
Cn1cnc2c(F)c(Nc3ccc(Br)cc3Cl)c(C(=O)NOCCO)cc21 [Selumetinib] + C[C@@H]1COCCN1C2=NC(=NC(=C2)C3(CC3)[S@](=N)(=O)C)C4=C5C=CNC5=NC=C4 [AZD6738] (first compound max 10 µM, 7x7, partner max 10 µM)	0.0844	-0.0359	0.01	0.048	0.0148	-0.0553	-0.0453	-0.0471	-0.0073	-0.0604	0.0232	0.0348	0.0239	-0.0149	0.0075	-0.0257	0.0065	0.0555	-0.0415	-0.0338
Cn1cnc2c(F)c(Nc3ccc(Br)cc3Cl)c(C(=O)NOCCO)cc21 [Selumetinib] + CC(C)n1c(=O)n(C)c2cnc3cc(F)c(-c4ccc(OCCCN5CCCCC5)nc4)cc3c21 [AZD1390] (first compound max 10 µM, 7x7, partner max 0.3 µM)	-0.0275	-0.0152	-0.0057	-0.0046	-0.0115	-0.0212	-0.0001	-0.0359	-0.0517	-0.0279	-0.0167	-0.0626	-0.0582	-0.03	-0.027	-0.0326	-0.112	-0.0769	-0.0601	-0.0165
Cc1nc(Nc2ncc(C(=O)Nc3c(C)cccc3Cl)s2)cc(N2CCN(CCO)CC2)n1 [Dasatinib] + CC(=O)Nc1cccc(-n2c(=O)n(C3CC3)c(=O)c3c(Nc4ccc(I)cc4F)n(C)c(=O)c(C)c32)c1 [Trametinib] (first compound max 2 µM, 7x7, partner max 1 µM)	0.153	0.0155	-0.0052	0.0459	-0.0416	-0.0238	-0.0616	-0.086	-0.0394	-0.0339	-0.103	-0.035	-0.0745	-0.179	-0.0575	0.0262	-0.108	0.0273	0.0004	0.0396
CC(=O)c1c(C)c2cnc(Nc3ccc(N4CCNCC4)cn3)nc2n(C2CCCC2)c1=O [Palbociclib] + Cc1c2c(nn1C)CSCc1cc(n(C)n1)CSc1cc(c3ccccc3c1)OCCCc1c(C(=O)O)n(C)c3c-2c(Cl)ccc13 [AZD5991] (first compound max 10 µM, 7x7, partner max 1 µM)	-0.0677	-0.0315	-0.082	-0.072	0.0346	-0.0997	-0.0562	-0.0135	-0.0346	-0.0373	-0.0473	-0.0278	-0.0742	-0.105	-0.0527	0.054	-0.111	-0.0484	-0.0174	-0.0123
CC1(C)CCC(CN2CCN(c3ccc(C(=O)NS(=O)(=O)c4ccc(NCC5CCOCC5)c([N+](=O)[O-])c4)c(Oc4cnc5[nH]ccc5c4)c3)CC2)=C(c2ccc(Cl)cc2)C1 [Venetoclax] + CCN(CCO)CCCOc1ccc2c(Nc3cc(CC(=O)Nc4cccc(F)c4)[nH]n3)ncnc2c1 [AZD2811] (first compound max 1 µM, 7x7, partner max 1 µM)	-0.053	0.0236	-0.0629	-0.0309	-0.0652	-0.0264	-0.0321	-0.0131	0.0033	-0.004	0.0287	0.0115	0.0107	-0.0739	-0.0009	0.0098	0.0015	-0.04	-0.0153	0.0405
Cn1cnc2c(F)c(Nc3ccc(Br)cc3Cl)c(C(=O)NOCCO)cc21 [Selumetinib] + CCN(CCO)CCCOc1ccc2c(Nc3cc(CC(=O)Nc4cccc(F)c4)[nH]n3)ncnc2c1 [AZD2811] (first compound max 10 µM, 7x7, partner max 1 µM)	0.0258	0.0153	-0.0456	-0.0526	-0.0447	-0.0278	-0.0494	-0.0241	-0.0518	-0.0173	0.0127	0.0295	0.0191	-0.0225	-0.0443	0.0229	-0.0736	-0.0583	-0.0069	-0.104
NC1(C(=O)N[C@@H](CCO)c2ccc(Cl)cc2)CCN(c2ncnc3[nH]ccc23)CC1 [Capivasertib] + COc1nnc2ccc(N3CCC(c4ccc(OCCN5CCN(C)C(=O)[C@H]5C)cc4)CC3)nn12 [AZD5153] (first compound max 10 µM, 7x7, partner max 1 µM)	-0.033	0.0318	-0.0329	-0.0395	-0.0017	0.0456	-0.0147	0.0119	0.0156	-0.0314	-0.0144	0.0618	0.0498	-0.0607	0.0526	-0.0483	0.0499	-0.0222	-0.0144	0.0578
NC1(C(=O)N[C@@H](CCO)c2ccc(Cl)cc2)CCN(c2ncnc3[nH]ccc23)CC1 [Capivasertib] + CC(=O)c1c(C)c2cnc(Nc3ccc(N4CCNCC4)cn3)nc2n(C2CCCC2)c1=O [Palbociclib] (first compound max 10 µM, 7x7, partner max 10 µM)	-0.0459	-0.0194	-0.0214	-0.0457	0.0102	-0.0207	-0.0506	-0.0276	-0.0238	-0.0066	-0.0358	0.0446	0.0186	-0.0452	-0.0097	0.0291	-0.0339	-0.0061	0.0072	0.0117
CC1(C)CCC(CN2CCN(c3ccc(C(=O)NS(=O)(=O)c4ccc(NCC5CCOCC5)c([N+](=O)[O-])c4)c(Oc4cnc5[nH]ccc5c4)c3)CC2)=C(c2ccc(Cl)cc2)C1 [Venetoclax] + C1CN(CCC1(C(=O)N[C@@H](CCO)C2=CC=C(C=C2)Cl)N)C3=NC=NC4=C3C=CN4 [Capivasertib] (first compound max 1 µM, 7x7, partner max 3 µM)	-0.0627	-0.0252	-0.106	-0.0387	-0.0696	-0.0823	-0.109	-0.0281	-0.0266	-0.0833	-0.0374	0.0107	-0.0233	-0.0613	-0.0214	-0.0301	-0.0414	-0.071	-0.103	-0.0234
CC1(C)CCC(CN2CCN(c3ccc(C(=O)NS(=O)(=O)c4ccc(NCC5CCOCC5)c([N+](=O)[O-])c4)c(Oc4cnc5[nH]ccc5c4)c3)CC2)=C(c2ccc(Cl)cc2)C1 [Venetoclax] + C=CCn1c(=O)c2cnc(Nc3ccc(N4CCN(C)CC4)cc3)nc2n1-c1cccc(C(C)(C)O)n1 [AZD1775] (first compound max 1 µM, partner max 1 µM)	-0.0762	0.0513	-0.0043	-0.112	0.0375	-0.0096	-0.0136	-0.014	0.0071	0.0552	-0.0171	-0.0452	-0.0559	-0.0206	-0.0456	0.0082	-0.0129	-0.0608	-0.0173	-0.0127
Cn1cnc2c(F)c(Nc3ccc(Br)cc3Cl)c(C(=O)NOCCO)cc21 [Selumetinib] + C=CCn1c(=O)c2cnc(Nc3ccc(N4CCN(C)CC4)cc3)nc2n1-c1cccc(C(C)(C)O)n1 [AZD1775] (first compound max 10 µM, partner max 1 µM)	-0.0164	-0.0137	-0.0117	0.0194	0.0173	-0.0366	0.016	-0.147	-0.0198	0.023	-0.0163	0.0705	-0.0482	-0.0026	-0.0685	-0.0305	-0.0715	-0.0387	-0.0097	-0.0387
CN(CCO)CC[C@H](CSc1ccccc1)Nc1ccc(S(=O)(=O)NC(=O)c2ccc(N3CCC([C@@H](O)c4ccccc4-c4ccc(Cl)cc4)CC3)cc2)cc1S(=O)(=O)C(F)(F)F [AZD4320] + C[C@@H](Nc1cc(F)cc(F)c1)c1cc(C(=O)N(C)C)cc2c(=O)cc(N3CCOCC3)oc12 [AZD8186] (first compound max 1 µM, 7x7, partner max 3 µM)	0.126	-0.0284	0.0304	0.038	0.0959	-0.0401	-0.0417	0.0747	0.0257	0.0029	-0.0032	-0.0055	0.0019	0.0166	0.0472	0.0133	0.0048	0.0113	0.0489	-0.0011
COc1nnc2ccc(N3CCC(c4ccc(OCCN5CCN(C)C(=O)[C@H]5C)cc4)CC3)nn12 [AZD5153] + CC1(C)CCC(CN2CCN(c3ccc(C(=O)NS(=O)(=O)c4ccc(NCC5CCOCC5)c([N+](=O)[O-])c4)c(Oc4cnc5[nH]ccc5c4)c3)CC2)=C(c2ccc(Cl)cc2)C1 [Venetoclax] (first compound max 1 µM, 7x7, partner max 1 µM)	-0.11	-0.0456	-0.0384	-0.102	-0.0288	-0.0196	-0.061	-0.0371	-0.0676	-0.0978	-0.0783	0.0061	-0.0292	-0.0706	-0.0343	-0.0287	-0.124	-0.086	-0.076	0.0247
COc1nnc2ccc(N3CCC(c4ccc(OCCN5CCN(C)C(=O)[C@H]5C)cc4)CC3)nn12 [AZD5153] + Cc1c2c(nn1C)CSCc1cc(n(C)n1)CSc1cc(c3ccccc3c1)OCCCc1c(C(=O)O)n(C)c3c-2c(Cl)ccc13 [AZD5991] (first compound max 1 µM, 7x7, partner max 1 µM)	-0.0198	0.0024	-0.0228	0.0051	-0.0146	-0.0731	-0.0376	0.0235	-0.0306	-0.0073	-0.0666	-0.0732	-0.0575	0.0184	0.0336	0.0105	-0.0227	-0.0287	-0.0517	0.0022
